The text below walks through data of patent publication US12570655B2, “Cysteine covalent modifiers of AKT1 and uses thereof” (Terremoto Biosciences, Inc., priority 2023, dated 2026).

Where two headings read alike, the source gives them in different places. A value given as a limit tells only on which side of the number the result lay.

Common to all, as to type: cell-based
Test [1] concerns the target T1, AKT1 WT (Homo sapiens, UniProt P31749).
T1 construct: expressed in transfected cells; host or cells: HEK293
The test can be described thus: Live cell AKT1 WT target engagement by NanoBRET competitive probe displacement. The note with it: HEK293 cells transfected with kinase-NanoLuciferase fusion, 2 h at 37° C. Put shortly:
(§1)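 IC50 fitted (Hill, log inhibitor vs response) to BRET signal, E600/E460 ratio, measured with extracellular NanoLuc inhibitor present. Intact transfected HEK293 cells bearing NanoLuc-tagged kinase were co-incubated 2 h, 37 °C, with compound dilution series and ~EC50 ATP-competitive fluorescent tracer.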
Background: Bioluminescence resonance energy transfer reports proximity on the nanometre scale.

Test [2] concerns the target T2, AKT2 (Homo sapiens, UniProt P31751).
T2 construct: expressed in transfected cells; host or cells: HEK293
In words: Live cell AKT2 target engagement by NanoBRET competitive probe displacement. The settings on record: HEK293 cells transfected with kinase-NanoLuciferase fusion, 2 h at 37° C. Put shortly:
as §1

For test [3], the target named is T3, AKT1 E17K (Homo sapiens, UniProt P31749, E17K).
T3 construct: expressed in transfected cells; host or cells: HEK293
T3 sequence (P31749 whole entry E17K): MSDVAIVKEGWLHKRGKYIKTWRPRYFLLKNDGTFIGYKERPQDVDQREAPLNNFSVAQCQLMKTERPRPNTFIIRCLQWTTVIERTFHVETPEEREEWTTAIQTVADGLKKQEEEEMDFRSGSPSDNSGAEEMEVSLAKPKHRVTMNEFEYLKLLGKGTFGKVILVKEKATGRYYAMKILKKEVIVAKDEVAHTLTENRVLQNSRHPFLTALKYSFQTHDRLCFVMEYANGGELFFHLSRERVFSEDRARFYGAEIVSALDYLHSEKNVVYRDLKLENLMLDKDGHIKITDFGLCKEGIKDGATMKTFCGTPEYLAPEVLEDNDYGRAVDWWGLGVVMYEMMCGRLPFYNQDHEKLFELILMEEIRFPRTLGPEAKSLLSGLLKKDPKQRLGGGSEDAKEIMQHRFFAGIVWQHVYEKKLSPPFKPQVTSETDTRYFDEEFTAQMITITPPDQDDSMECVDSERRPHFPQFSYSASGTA
In words: Live cell AKT1 E17K target engagement by NanoBRET competitive probe displacement. The note with it: HEK293 cells transfected with kinase-NanoLuciferase fusion, 2 h at 37° C. A digest of the protocol: as §1

Test [4] relates to LAPC4 prostate cancer cells. In words: Antiproliferative effects in LAPC4 cells (CellTiter Glo). The settings on record: LAPC4 cells (AKT1 E17K allele), read-out: LAPC4 proliferation IC50. A digest of the protocol: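 Growth inhibition was measured by CellTiter Glo ATP luminescence after 72 h compound exposure of 1,000 seeded cells/well. The cells were AKT1 E17K-expressing LAPC4 prostate cancer cells maintained in IMDM plus 12% FBS. IC50 values came from Hill-equation fits.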
A general note: Cellular ATP, detected with luciferase, serves as a proxy for viable cell number.

T2 sequence (P31751 whole entry): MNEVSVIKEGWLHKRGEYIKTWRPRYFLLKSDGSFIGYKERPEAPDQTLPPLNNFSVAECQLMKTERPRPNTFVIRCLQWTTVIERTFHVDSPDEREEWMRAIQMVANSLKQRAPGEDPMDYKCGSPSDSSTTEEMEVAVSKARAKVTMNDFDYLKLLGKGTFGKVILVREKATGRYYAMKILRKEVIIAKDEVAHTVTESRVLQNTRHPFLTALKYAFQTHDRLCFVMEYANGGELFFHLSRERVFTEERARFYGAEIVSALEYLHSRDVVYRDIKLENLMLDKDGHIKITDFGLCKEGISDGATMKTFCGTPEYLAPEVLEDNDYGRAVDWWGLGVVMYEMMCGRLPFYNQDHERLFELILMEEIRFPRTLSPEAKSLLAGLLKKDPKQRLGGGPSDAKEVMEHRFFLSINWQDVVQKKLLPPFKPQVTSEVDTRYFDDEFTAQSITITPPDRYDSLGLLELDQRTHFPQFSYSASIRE
T1 sequence (P31749 whole entry): as the sequence (P31749 whole entry E17K) above, with K17E counted along it

On to `C=CC(=O)N1CCC(N[C@H]2CCc3cc(-n4c(-c5cccnc5N)nc5ccc(C6CC6)nc54)ccc32)C(F)C1` (single isomer, unassigned) [Example 177, 1-((3*,4*)-4-(((S)-5-(2-(2-aminopyridin-3-yl)-5-cyclopropyl-3H-imidazo[4,5-b]pyridin-3-yl)-2,3-dihydro-1H-inden-1-yl)amino)-3-fluoropiperidin-1-yl)prop-2-en-1-one], for which the IC50 amounted to 1520 nM in test [1], 114 nM in test [2], 36.9 nM in test [3] and 416 nM in test [4] (72 h).
On to `C=CC(=O)N1CCN(N[C@H]2CCc3cc(-n4c(-c5cccnc5N)nc5ccc(C6CC6)nc54)ccc32)CC1` [Example 349], for which the IC50 in test [1] came to 1640 nM; in test [2] it was 432 nM; in test [3], 32 nM; in test [4] (Homo sapiens, LAPC4, 72 h) it was 1160 nM.
For `C=CC(=O)NCc1ccccc1C(=O)N[C@H]1CCc2cc(-n3c(-c4cccnc4N)nc4ccc(-n5cccn5)nc43)ccc21` [Example 71, N-[(1S)-5-[2-(2-aminopyridin-3-yl)-5-(pyrazol-1-yl)imidazo[4,5-b]pyridin-3-yl]-2,3-dihydro-1H-inden-1-yl]-2-(prop-2-enamidomethyl)benzamide], the IC50 in test [1] amounted to 11.5 nM; in test [2], 31.8 nM; in test [3], 9.43 nM; in test [4] (Homo sapiens, LAPC4, 72 h) it was 29.8 nM.
With `C=CC(=O)N1CC2CC[C@@H]1CC2N[C@H]1CCc2cc(-n3c(-c4cccnc4N)nc4ccc(-n5cccn5)nc43)ccc21` (single isomer, unassigned) [Example 132, 1-[(1R,4R,5*)-5-{[(1S)-5-[2-(2-aminopyridin-3-yl)-5-(pyrazol-1-yl)imidazo[4,5-b]pyridin-3-yl]-2,3-dihydro-1H-inden-1-yl]amino}-2-azabicyclo[2.2.2]octan-2-yl]prop-2-en-1-one], the IC50 in test [1] came to 97.5 nM; in test [2], 2250 nM; in test [3], 326 nM; in test [4] (72 h) it was 1510 nM.
`C=CC(=O)N1CCC(N[C@H]2CCc3cc(-n4c(-c5cccnc5N)nc5ccc(-n6cccn6)nc54)ccc32)C(F)(F)C1` (single isomer, unassigned) [Example 55, 1-((*)-4-(((S)-5-(2-(2-aminopyridin-3-yl)-5-(1H-pyrazol-1-yl)-3H-imidazo[4,5-b]pyridin-3-yl)-2,3-dihydro-1H-inden-1-yl)amino)-3,3-difluoropiperidin-1-yl)prop-2-en-1-one]: the IC50 in test [1] was 93.7 nM; in test [2], 1120 nM; in test [3], 215 nM; in test [4] (72 h), 617 nM.
For the compound `C=CC(=O)N1CCC(N[C@H]2CCc3cc(-n4c(-c5cccnc5N)nc5ccc(-n6cccn6)nc54)ccc32)C[C@H]1COC` (single isomer, unassigned) [Example 129, 1-[(2S,4*)-4-{[(1S)-5-[2-(2-aminopyridin-3-yl)-5-(pyrazol-1-yl)imidazo[4,5-b]pyridin-3-yl]-2,3-dihydro-1H-inden-1-yl]amino}-2-(methoxymethyl)piperidin-1-yl]prop-2-en-1-one], the IC50 in test [1] was 115 nM; in test [2], 2720 nM; in test [3] it was over 1000 nM; in test [4] (72 h), over 10000 nM.
On the same counts, the results for `C=CC(=O)N1CCC(N[C@@H]2c3ccc(-n4c(-c5cccnc5N)nc5ccc(-n6cccn6)nc54)cc3CC2OC)CC1` (single isomer, unassigned) [Example 163, 1-(4-(((1R,2*)-5-(2-(2-aminopyridin-3-yl)-5-(1H-pyrazol-1-yl)-3H-imidazo[4,5-b]pyridin-3-yl)-2-methoxy-2,3-dihydro-1H-inden-1-yl)amino)piperidin-1-yl)prop-2-en-1-one] are 71.7 nM, 1910 nM, 642 nM and 879 nM.
For `C=CC(=O)N1C[C@@H]2C[C@H]1CC2N[C@H]1CCc2cc(-n3c(-c4cccnc4N)nc4ccc(-n5cccn5)nc43)ccc21` (single isomer, unassigned) [Example 136, 1-[(1S,4S,5*)-5-{[(1S)-5-[2-(2-aminopyridin-3-yl)-5-(pyrazol-1-yl)imidazo[4,5-b]pyridin-3-yl]-2,3-dihydro-1H-inden-1-yl]amino}-2-azabicyclo[2.2.1]heptan-2-yl]prop-2-en-1-one], the IC50 worked out at 95.8 nM in test [1], 1950 nM in test [2], 211 nM in test [3] and 520 nM in test [4] (72 h).
On the same counts, the results for `C=CC(=O)N1CCC(N[C@H]2CCc3cc(-n4c(-c5cccnc5N)nc5ccc(-n6cccn6)nc54)ccc32)C1` (single isomer, unassigned) [Example 58, 1-((*)-3-(((S)-5-(2-(2-aminopyridin-3-yl)-5-(1H-pyrazol-1-yl)-3H-imidazo[4,5-b]pyridin-3-yl)-2,3-dihydro-1H-inden-1-yl)amino)pyrrolidin-1-yl)prop-2-en-1-one] are 50.2 nM, 1030 nM, 189 nM and 438 nM.
For the compound `C=CC(=O)N1CCC(N[C@H]2CCc3cc(-n4c(-c5cccnc5N)nc5ccc(C6CC6)nc54)ccc32)C(C)C1` (single isomer, unassigned) [Example 231, 1-((3*,4*)-4-(((S)-5-(2-(2-aminopyridin-3-yl)-5-cyclopropyl-3H-imidazo[4,5-b]pyridin-3-yl)-2,3-dihydro-1H-inden-1-yl)amino)-3-methylpiperidin-1-yl)prop-2-en-1-one], the IC50 was 1220 nM in test [1], 174 nM in test [2], 74.8 nM in test [3] and 398 nM in test [4] (72 h).
For `C=CC(=O)N1CCC(N[C@H]2CCc3cc(-n4c(-c5cccnc5N)nc5ccc(-c6cnccn6)nc54)ccc32)CC1` [Example 120, (S)-1-(4-((5-(2-(2-aminopyridin-3-yl)-5-(pyrazin-2-yl)-3H-imidazo[4,5-b]pyridin-3-yl)-2,3-dihydro-1H-inden-1-yl)amino)piperidin-1-yl)prop-2-en-1-one], the IC50 was 23.6 nM in test [1]; 885 nM in test [2]; 185 nM in test [3]; 814 nM in test [4] (Homo sapiens, LAPC4, 72 h).
Turning to `C=CC(=O)N1CCC(N[C@H]2CCc3cc(-n4c(-c5ccccc5)nc5ccc(-n6ccc(F)n6)nc54)ccc32)CC1` [Example 282, 1-(4-{[(1S)-5-[5-(3-fluoropyrazol-1-yl)-2-phenylimidazo[4,5-b]pyridin-3-yl]-2,3-dihydro-1H-inden-1-yl]amino}piperidin-1-yl)prop-2-en-1-one], the IC50 in test [1] was found to be 1590 nM; in test [2], 86 nM; in test [3], 15.2 nM; in test [4] (Homo sapiens, LAPC4, 72 h) it was 464 nM.
Turning to `C=CC(=O)N1CCC(N[C@H]2CCc3cc(-n4c(-c5cccnc5N)nc5cc(C6CC6)cnc54)ccc32)CC1` [Example 199, 1-(4-{[(1S)-5-[2-(2-aminopyridin-3-yl)-6-cyclopropylimidazo[4,5-b]pyridin-3-yl]-2,3-dihydro-1H-inden-1-yl]amino}piperidin-1-yl)prop-2-en-1-one], the IC50 in test [1] was found to be 603 nM; in test [2], 802 nM; in test [3], 67.4 nM; in test [4] (Homo sapiens, LAPC4, 72 h) it was 2380 nM.
